Experimental data from patent publication US8912176B2 (Evotec AG, priority 2009, dated 2014).

Target: human H3 receptor (Homo sapiens, UniProt Q9Y5N1)
Experiment: cAMP quantification assay for human H3 receptor (DiscoveRx cAMP XS+)

human H3 receptor, sequence (Q9Y5N1 whole entry): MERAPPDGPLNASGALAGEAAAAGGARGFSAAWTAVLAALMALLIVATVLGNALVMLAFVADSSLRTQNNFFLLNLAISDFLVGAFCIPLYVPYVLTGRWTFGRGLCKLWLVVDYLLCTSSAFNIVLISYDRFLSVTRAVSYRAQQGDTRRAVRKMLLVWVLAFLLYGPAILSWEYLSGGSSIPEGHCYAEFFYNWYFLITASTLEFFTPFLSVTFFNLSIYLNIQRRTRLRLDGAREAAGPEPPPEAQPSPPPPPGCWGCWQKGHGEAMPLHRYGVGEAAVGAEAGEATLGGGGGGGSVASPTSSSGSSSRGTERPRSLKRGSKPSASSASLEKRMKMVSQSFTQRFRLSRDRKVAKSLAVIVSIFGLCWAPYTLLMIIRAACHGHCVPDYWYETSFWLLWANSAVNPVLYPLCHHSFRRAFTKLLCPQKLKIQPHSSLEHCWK

Compound	IC50
O=C(CC1CCCCC1)N1CC(C(=O)N2CCCN(C3CCC3)CC2)C1 [Example 33, 1-cyclobutyl-4-{[1-(cyclohexylacetyl)azetidin-3-yl]carbonyl}-1,4-diazepane]	< 50 nM
O=C(C1CN(S(=O)(=O)C2CCCCC2)C1)N1CCCN(C2CCC2)CC1 [Example 24, 1-cyclobutyl-4-{[1-(cyclohexylsulfonyl)azetidin-3-yl]carbonyl}-1,4-diazepane]	< 50 nM
O=C(CN1CCS(=O)(=O)CC1)N1CC(C(=O)N2CCCN(C3CCC3)CC2)C1 [Example 18, 1-cyclobutyl-4-({1-[(1,1-dioxidothiomorpholin-4-yl)acetyl]azetidin-3-yl}carbonyl)-1,4-diazepane]	< 50 nM
Cc1nc(-c2ccc(C(=O)N3CC(C(=O)N4CCCN(C5CCC5)CC4)C3)cc2)no1 [Example 37, 1-cyclobutyl-4-[(1-{[4-(5-methyl-1,2,4-oxadiazol-3-yl)phenyl]carbonyl}azetidin-3-yl)carbonyl]-1,4-diazepane]	< 50 nM
O=C(c1ccc(-c2nccs2)cc1)N1CC(C(=O)N2CCCN(C3CCC3)CC2)C1 [Example 35, 1-cyclobutyl-4-[(1-{[4-(1,3-thiazol-2-yl)phenyl]carbonyl}azetidin-3-yl)carbonyl]-1,4-diazepane]	< 50 nM
O=C(CN1CCOCC1)N1CC(C(=O)N2CCCN(C3CCC3)CC2)C1 [Example 17, 1-cyclobutyl-4-{[1-(morpholin-4-ylacetyl)azetidin-3-yl]carbonyl}-1,4-diazepane]	< 50 nM
N#Cc1ccc(OCC(=O)N2CC(C(=O)N3CCCN(C4CCC4)CC3)C2)cc1 [Example 22, 4-(2-{3-[(4-cyclobutyl-1,4-diazepan-1-yl)carbonyl]azetidin-1-yl}-2-oxoethoxy)benzonitrile]	< 50 nM
COC1CCC(C(=O)N2CC(C(=O)N3CCCN(C4CCC4)CC3)C2)CC1 (mixture of isomers) [Example 28, 1-cyclobutyl-4-({1-[(4-methoxycyclohexyl)carbonyl]azetidin-3-yl}carbonyl)-1,4-diazepane]	< 50 nM
Cc1nnc(-c2ccc(C(=O)N3CC(C(=O)N4CCCN(C5CCC5)CC4)C3)cc2)o1 [Example 31, 1-cyclobutyl-4-[(1-{[4-(5-methyl-1,3,4-oxadiazol-2-yl)phenyl]carbonyl}azetidin-3-yl)carbonyl]-1,4-diazepane]	< 50 nM
N#Cc1ccc(S(=O)(=O)N2CC(C(=O)N3CCCN(C4CCC4)CC3)C2)cc1 [Example 27, 4-({3-[(4-cyclobutyl-1,4-diazepan-1-yl)carbonyl]azetidin-1-yl}sulfonyl)benzonitrile]	< 50 nM
O=C(c1ccc(-n2cccn2)nc1)N1CC(C(=O)N2CCCN(C3CCC3)CC2)C1 [Example 14, 1-cyclobutyl-4-[(1-{[6-(1H-pyrazol-1-yl)pyridin-3-yl]carbonyl}azetidin-3-yl)carbonyl]-1,4-diazepane]	< 50 nM
Cc1nc(-c2ccc(C(=O)N3CC(C(=O)N4CCCN(C5CCC5)CC4)C3)cc2)cs1 [Example 36, 1-cyclobutyl-4-[(1-{[4-(2-methyl-1,3-thiazol-4-yl)phenyl]carbonyl}azetidin-3-yl)carbonyl]-1,4-diazepane]	< 50 nM
O=C(C1CN(C(=O)N2CCCCC2)C1)N1CCCN(C2CCC2)CC1 [Example 2, 1-cyclobutyl-4-{[1-(piperidin-1-ylcarbonyl)azetidin-3-yl]carbonyl}-1,4-diazepane]	< 50 nM
N#Cc1ccc(OC(=O)N2CC(C(=O)N3CCCN(C4CCC4)CC3)C2)cc1 [Example 69, 4-cyanophenyl 3-[(4-cyclobutyl-1,4-diazepan-1-yl)carbonyl]azetidine-1-carboxylate]	< 50 nM
O=C(CN1CCCCC1)N1CC(C(=O)N2CCCN(C3CCC3)CC2)C1 [Example 16, 1-cyclobutyl-4-{[1-(piperidin-1-ylacetyl)azetidin-3-yl]carbonyl}-1,4-diazepane]	< 50 nM
N#Cc1ccc(CC(=O)N2CC(C(=O)N3CCCN(C4CCC4)CC3)C2)cc1 [Example 34, 4-(2-{3-[(4-cyclobutyl-1,4-diazepan-1-yl)carbonyl]azetidin-1-yl}-2-oxoethyl)benzonitrile]	< 50 nM
Cc1ncc(C(=O)N2CC(C(=O)N3CCCN(C4CCC4)CC3)C2)cn1 [Example 8, 1-cyclobutyl-4-({1-[(2-methylpyrimidin-5-yl)carbonyl]azetidin-3-yl}carbonyl)-1,4-diazepane]	< 50 nM
O=C(CN1CCC(F)(F)C1)N1CC(C(=O)N2CCCN(C3CCC3)CC2)C1 [Example 19, 1-cyclobutyl-4-({1-[(3,3-difluoropyrrolidin-1-yl)acetyl]azetidin-3-yl}carbonyl)-1,4-diazepane]	< 50 nM
O=C(CC1CC1)N1CC(C(=O)N2CCCN(C3CCC3)CC2)C1 [Example 32, 1-cyclobutyl-4-{[1-(cyclopropylacetyl)azetidin-3-yl]carbonyl}-1,4-diazepane]	< 50 nM
O=C(C1CN(C(=O)N2CCOCC2)C1)N1CCCN(C2CCC2)CC1 [Example 3, 1-cyclobutyl-4-{[1-(morpholin-4-ylcarbonyl)azetidin-3-yl]carbonyl}-1,4-diazepane]	< 50 nM
Cc1ccc(OCC(=O)N2CC(C(=O)N3CCCN(C4CCC4)CC3)C2)cn1 [Example 21, 1-cyclobutyl-4-[(1-{[(6-methylpyridin-3-yl)oxy]acetyl}azetidin-3-yl)carbonyl]-1,4-diazepane]	< 50 nM
O=C(C1CN(C(=O)C2CCOCC2)C1)N1CCCN(C2CCC2)CC1 [Example 5, 1-cyclobutyl-4-{[1-(tetrahydro-2H-pyran-4-ylcarbonyl)azetidin-3-yl]carbonyl}-1,4-diazepane]	< 50 nM

The next lines start with the values.

IC50	Compound
< 50 nM	N#Cc1ccc(CNC(=O)N2CC(C(=O)N3CCCN(C4CCC4)CC3)C2)cc1 [Example 66, N-(4-cyanobenzyl)-3-[(4-cyclobutyl-1,4-diazepan-1-yl)carbonyl]azetidine-1-carboxamide]
< 50 nM	CC1(C)COC(c2ccc(C(=O)N3CC(C(=O)N4CCCN(C5CCC5)CC4)C3)cc2)=N1 [Example 42, 1-cyclobutyl-4-[(1-{[4-(4,4-dimethyl-4,5-dihydro-1,3-oxazol-2-yl)phenyl]carbonyl}azetidin-3-yl)carbonyl]-1,4-diazepane]
< 50 nM	O=C(c1ccc(-c2ccncc2)cc1)N1CC(C(=O)N2CCCN(C3CCC3)CC2)C1 [Example 45, 1-cyclobutyl-4-({1-[(4-pyridin-4-ylphenyl)carbonyl]azetidin-3-yl}carbonyl)-1,4-diazepane]
< 50 nM	CNC(=O)c1ccc(C(=O)N2CC(C(=O)N3CCCN(C4CCC4)CC3)C2)cn1 [Example 77, 5-({3-[(4-cyclobutyl-1,4-diazepan-1-yl)carbonyl]azetidin-1-yl}carbonyl)-N-methylpyridine-2-carboxamide]
< 50 nM	O=C(c1ccc(Oc2ccccc2)cc1)N1CC(C(=O)N2CCCN(C3CCC3)CC2)C1 [Example 39, 1-cyclobutyl-4-({1-[(4-phenoxyphenyl)carbonyl]azetidin-3-yl}carbonyl)-1,4-diazepane]
< 50 nM	CC(=O)N1CC(C(=O)N2CCCN(C3CCC3)CC2)C1 [Example 70, 1-[(1-acetylazetidin-3-yl)carbonyl]-4-cyclobutyl-1,4-diazepane]
< 50 nM	O=C(NCc1ccc(F)cc1)N1CC(C(=O)N2CCCN(C3CCC3)CC2)C1 [Example 58, 3-[(4-cyclobutyl-1,4-diazepan-1-yl)carbonyl]-N-(4-fluorobenzyl)azetidine-1-carboxamide]
< 50 nM	O=C(c1ccc(-n2ccnc2)cc1)N1CC(C(=O)N2CCCN(C3CCC3)CC2)C1 [Example 72, 1-cyclobutyl-4-[(1-{[4-(1H-imidazol-1-yl)phenyl]carbonyl}azetidin-3-yl)carbonyl]-1,4-diazepane]
< 50 nM	O=C(C1CN(C(=O)N2CCc3ccccc3C2)C1)N1CCCN(C2CCC2)CC1 [Example 65, 2-({3-[(4-cyclobutyl-1,4-diazepan-1-yl)carbonyl]azetidin-1-yl}carbonyl)-1,2,3,4-tetrahydroisoquinoline]
< 50 nM	O=C(NCC1CCOCC1)N1CC(C(=O)N2CCCN(C3CCC3)CC2)C1 [Example 57, 3-[(4-cyclobutyl-1,4-diazepan-1-yl)carbonyl]-N-(tetrahydro-2H-pyran-4-ylmethyl)azetidine-1-carboxamide]
< 50 nM	O=C(c1ccc(-n2cncn2)c(F)c1)N1CC(C(=O)N2CCCN(C3CCC3)CC2)C1 [Example 78, 1-cyclobutyl-4-[(1-{[3-fluoro-4-(1H-1,2,4-triazol-1-yl)phenyl]carbonyl}azetidin-3-yl)carbonyl]-1,4-diazepane]
< 50 nM	CN(Cc1ccc(C#N)cc1)C(=O)N1CC(C(=O)N2CCCN(C3CCC3)CC2)C1 [Example 64, N-(4-cyanobenzyl)-3-[(4-cyclobutyl-1,4-diazepan-1-yl)carbonyl]-N-methylazetidine-1-carboxamide]
100 to 5000 nM	Cc1ccc(C(=O)N2CC(C(=O)N3CCCN(C(C)C)CC3)C2)cn1 [Example 79, 1-(1-methylethyl)-4-({1-[(6-methylpyridin-3-yl)carbonyl]azetidin-3-yl}carbonyl)-1,4-diazepane]
100 to 5000 nM	Cc1ccc(C(=O)N2CC(C(=O)N3CCCN(CC(C)C)CC3)C2)cn1 [Example 84, 1-(2-methylpropyl)-4-({1-[(6-methylpyridin-3-yl)carbonyl]azetidin-3-yl}carbonyl)-1,4-diazepane]
< 50 nM	CC(C)c1ccc(C(=O)N2CC(C(=O)N3CCCN(C4CCC4)CC3)C2)cc1 [Example 38, 1-cyclobutyl-4-[(1-{[4-(1-methylethyl)phenyl]carbonyl}azetidin-3-yl)carbonyl]-1,4-diazepane]
< 50 nM	CN(C(=O)N1CC(C(=O)N2CCCN(C3CCC3)CC2)C1)c1ccc(C#N)cc1 [Example 63]
< 50 nM	O=C(c1ccc(-n2cccn2)cc1)N1CC(C(=O)N2CCCN(C3CCC3)CC2)C1 [Example 40, 1-cyclobutyl-4-[(1-{[4-(1H-pyrazol-1-yl)phenyl]carbonyl}azetidin-3-yl)carbonyl]-1,4-diazepane]
< 50 nM	O=C(c1ccc(Cn2cncn2)cc1)N1CC(C(=O)N2CCCN(C3CCC3)CC2)C1 [Example 74, 1-cyclobutyl-4-[(1-{[4-(1H-1,2,4-triazol-1-ylmethyl)phenyl]carbonyl}azetidin-3-yl)carbonyl]-1,4-diazepane]
